Results published in article PMC4621012 (Molecules, 2014).

Biological target: GRK5 (Bos taurus, UniProt P43249)
Test: DSF (ThermoFluor, ANS) melting point shift, dose response, reconfirmed by replating; no Kd
Type: binding

GRK5, sequence (P43249 whole entry): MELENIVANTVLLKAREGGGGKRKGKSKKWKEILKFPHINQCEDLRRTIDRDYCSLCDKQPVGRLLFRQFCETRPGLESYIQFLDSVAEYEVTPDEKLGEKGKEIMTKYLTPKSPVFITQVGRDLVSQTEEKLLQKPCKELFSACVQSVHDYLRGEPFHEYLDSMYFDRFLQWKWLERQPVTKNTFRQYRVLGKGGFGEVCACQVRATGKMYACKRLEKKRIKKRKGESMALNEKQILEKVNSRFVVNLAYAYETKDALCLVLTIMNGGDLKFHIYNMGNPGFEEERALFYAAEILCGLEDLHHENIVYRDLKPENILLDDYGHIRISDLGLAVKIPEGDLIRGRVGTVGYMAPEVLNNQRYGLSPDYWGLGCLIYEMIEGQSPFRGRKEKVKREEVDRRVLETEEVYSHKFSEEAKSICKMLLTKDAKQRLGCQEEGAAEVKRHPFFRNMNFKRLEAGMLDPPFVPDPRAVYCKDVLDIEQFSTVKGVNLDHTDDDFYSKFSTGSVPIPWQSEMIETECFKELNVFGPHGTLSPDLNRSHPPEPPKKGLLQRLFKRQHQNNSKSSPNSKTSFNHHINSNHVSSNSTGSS

## CN[C@@H]1C[C@H]2O[C@@](C)([C@@H]1OC)n1c3ccccc3c3c4c(c5c6ccccc6n2c5c31)C(=O)NC4 [staurosporine]
  DSF (ThermoFluor, ANS) melting point shift, dose response, reconfirmed by replat: Staurosporine, which served effectively as a positive control, was not analyzed further.
